The values that follow come from patent US10100033B2 (dated 2018).

Turning to `CCN(C(C)=O)c1cn(-c2cccnc2)nc1Cl`, the melting point (as a rule, the temperature of the solid-liquid transition) fell in the range of 87 to 91 °C.
